Results reported in publication PMC6934184, “Selective DNA-PKcs inhibition extends the therapeutic index of localized radiotherapy and chemotherapy” (The Journal of Clinical Investigation, 2019).

Biological target: T1, SPHK1 (Homo sapiens, UniProt Q9NYA1)
T1 construct: purchased Thermo Fisher Scientific (Life Technologies) SelectScreen
Test: SelectScreen Adapta
Format: biochemical
How it was run: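 Percent values come from Thermo SelectScreen profiling of NU5455, combining activity and binding assays. CSF1R was run in Z'LYTE format at Km app ATP, and CAMK1 in Adapta format with ATP listed at 10.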

T1 sequence (Q9NYA1 whole entry): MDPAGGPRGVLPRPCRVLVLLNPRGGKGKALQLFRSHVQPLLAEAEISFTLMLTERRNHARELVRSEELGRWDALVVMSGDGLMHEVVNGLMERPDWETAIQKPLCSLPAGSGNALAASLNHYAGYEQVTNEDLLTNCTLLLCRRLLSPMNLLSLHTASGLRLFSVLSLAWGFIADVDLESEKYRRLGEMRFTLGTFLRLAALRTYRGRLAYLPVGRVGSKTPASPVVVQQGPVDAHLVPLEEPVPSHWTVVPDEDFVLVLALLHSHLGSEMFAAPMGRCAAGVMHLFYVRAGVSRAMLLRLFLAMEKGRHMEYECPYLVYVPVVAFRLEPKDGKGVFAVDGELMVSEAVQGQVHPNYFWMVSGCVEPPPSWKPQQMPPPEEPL

Structure (SMILES): CN(C(=O)CN1CCOCC1)c1ccc2sc3c(-c4cccc5c(=O)cc(N6CC7CCC(C6)O7)oc45)cccc3c2c1 [NU5455]
- inhibition at 1 µM: 2.7%
